Laboratory results reported in article PMC5476563, “Structure-Guided Design of C4-alkyl-1,4-dihydro-2H-pyrimido[4,5-d][1,3]oxazin-2-ones as Potent and Mutant-Selective Epidermal Growth Factor Receptor (EGFR) L858R/T790M Inhibitors” (Scientific Reports, 2017).
Several values for one entry are separate records, joined by “and”; a condition that tells them apart may be missing. Identical values can stand only once.

Legend:
EGFR^WT = target: T1, EGFR^WT (Homo sapiens, UniProt P00533); experiment: ELISA-based EGFR-TK enzymatic activity assay (WT); type: biochemical; conditions: mean ± SD, at least three determinations, read-out: Enzyme Inhibitory Activity (IC50, nM) WT
T1 construct: Kinases domain of EGFR^L858R/T790M and EGFR^WT were expressed by using the Bac-to-Bac™ baculovirusexpression system; made in house
T1 sequence (P00533 712-979 limits assumed): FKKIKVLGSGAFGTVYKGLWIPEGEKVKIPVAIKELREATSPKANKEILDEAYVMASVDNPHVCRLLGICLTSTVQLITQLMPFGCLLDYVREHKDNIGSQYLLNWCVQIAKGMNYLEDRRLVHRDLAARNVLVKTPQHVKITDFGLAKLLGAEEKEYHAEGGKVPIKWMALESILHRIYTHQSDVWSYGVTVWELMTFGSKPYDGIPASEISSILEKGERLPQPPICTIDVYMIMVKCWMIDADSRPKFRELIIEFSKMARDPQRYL
Procedure: In vitro antiproliferation activities of the compounds were examined through using the sulforhodamine B (SRB) colourimetric assay.
(§1) The enzymatic activity assay was evaluated by using the well-established ELISA-based assay. […] The detailed experiment was performed according to the published literature.

EGFR^L858R/T790M [1] = target: T2, EGFR^L858R/T790M (Homo sapiens, UniProt P00533, L858R/T790M); experiment: ELISA-based EGFR-TK enzymatic activity assay (dual mutant); type: biochemical; conditions: for IC50: ELISA-based EGFR-TK assay, mean ± SD, at least three determinations, read-out: Enzyme Inhibitory Activity (IC50, nM) L858R/T790M; for Enzyme Selectivity WT:DM: ratio IC50 EGFR^WT : EGFR^L858R/T790M
T2 construct: Kinases domain of EGFR^L858R/T790M and EGFR^WT were expressed by using the Bac-to-Bac™ baculovirusexpression system; made in house
T2 sequence (P00533 712-979 T790M/L858R limits assumed): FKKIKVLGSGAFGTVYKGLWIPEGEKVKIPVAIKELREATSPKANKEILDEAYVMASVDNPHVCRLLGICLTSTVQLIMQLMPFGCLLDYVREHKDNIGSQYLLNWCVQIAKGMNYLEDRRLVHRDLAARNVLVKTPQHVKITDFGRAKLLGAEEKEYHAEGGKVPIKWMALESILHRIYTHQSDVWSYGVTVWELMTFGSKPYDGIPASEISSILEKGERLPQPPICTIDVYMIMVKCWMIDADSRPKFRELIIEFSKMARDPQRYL
Procedure: as §1

[2] = test system: A431 cells (expressing EGFR^WT); experiment: Sulforhodamine B (SRB) cellular antiproliferation assay, A431; type: cell-based; conditions: Homo sapiens, A-431, 72 h, mean ± SD, read-out: Cellular Antiproliferative Activity (IC50, nM) A431
Excerpt: (§2) Having explored potent inhibition and obvious selectivity of EGFR kinases by introduction of alkyl groups to C4-position to the 1,4-dihydro-2H-pyrimido[4,5-d][1,3]oxazin-2-one ring, we subsequently evaluated their anti-proliferative activities in H1975 cells (expressing EGFR^L858R/T790M) and A431 cells (expressing EGFR^WT) in vitro by using the sulforhodamine B (SRB) colourimetric assay. The anti-proliferative activities of our designed compounds against H1975 and A431 cell lines range from 135 nM to more than 9 μM and from 554 nM to more than 7 μM, respectively (Fig. 5). Additionally, the selectivity at the cellular level is from 0.7 to 9.4-fold.
(§3) In vitro cellular antiproliferation activities of the designed compounds against H1975 and A431 cell lines were examined by using the well-established sulforhodamine B (SRB) colorimetric assay. The detailed experiment was performed according to the published literature. Briefly, H1975 and A431 cells were seeded in 96-well plates, and allowed to adhere overnight followed by treated with gradient concentrations of the test compounds for 72 h. […] The IC50 values were obtained by using the Logit method and reported as the mean ± SD from three independent determinations.

[3] = test system: H1975 cells (expressing EGFR^L858R/T790M); experiment: Sulforhodamine B (SRB) cellular antiproliferation assay, H1975; type: cell-based; conditions: for IC50: Homo sapiens, NCI-H1975, SRB assay, 72 h, mean ± SD, read-out: Cellular Antiproliferative Activity (IC50, nM) H1975; for Cellular Selectivity A431:H1975: ratio IC50 A431 : H1975
Excerpt: as §2, §3

[4] = test system: phosphorylation of EGFR^L858R/T790M, AKT and ERK in H1975 cells; experiment: Western blot analysis of EGFR and downstream signaling phosphorylation, H1975; type: cell-based; conditions: 2 h incubation, EGF 50 ng/mL 10 min
Procedure: (§4) Cells were starved in serum-free medium for 24 h before incubation of indicated concentrations of compounds 20a and 8 (positive control) and harvested after stimulation by EGF (50 ng/mL) for 10 min. Phosphorylation of EGFR and downstream signaling substrates was examined by Western Blot analysis. Blot source data is provided in Supplementary Fig. S1.
(§5) Western blot analysis was performed with standard procedures. Briefly, H1975 and A431 cell lines were seeded in six-well plates, starved in serum-free medium for 24 h, followed by incubation for 2 h in the presence of different concentrations of compounds 20a and 8 (as positive control). Cells were stimulated by the addition of EGF (50 ng/mL, R&D Systems, US) for 10 min, then washed with PBS and lysed in SDS lysis buffer. Antibodies against p-EGFR (Y1068; #3777 S), EGFR (#4267 S), p-ERK (T202/Y204; #4370 L), ERK (#4695 S), p-AKT (Ser473), AKT and Tubulin were used (Cell Signaling Technologies, Cambridge, MA).

[5] = test system: activation of EGFR^WT in A431 cells; experiment: Western blot analysis of EGFR phosphorylation, A431; type: cell-based
Procedure: as §4, §5

[6] = test system: H1975 xenograft driven by EGFR^L858R/T790M; experiment: In vivo antitumor efficacy, H1975 NSCLC xenograft mouse model; parameters: species or system nude mice; conditions: 14 days; for tumor growth inhibition (TGI): 50 mg/kg orally once per day, final day vs vehicle, P < 0.05
Procedure: H1975 cells were implanted as described in Methods. […] H1975 xenograft mouse model tumor volumes (A) and body weights (B) were recorded every two or three days. All values represent mean ± SEM.
All experimental procedures involving animals were performed in accordance with the ethical guidelines from Shanghai Laboratory Animal Public Service Center and Animal Ethics Committee of the East China University of Science and Technology. The whole experimental protocol was also approved by the Animal Ethics Committee of the East China University of Science and Technology. All 4–6 weeks old nude mice were purchased from Shanghai Slac Laboratory Animal Co. Ltd (The license of experimental animal: SCXK (shanghai) 2012–0002). The mice were maintained under the 12 hour light/dark cycles condition in the specific pathogen free (SPF) cleanroom with fresh air (more than 50%), appropriate temperature (22–26 °C) and humidness (40–60%). All materials and containers were disinfected and sterilized before use. Nude mice, aged 4–6 weeks, were inoculated subcutaneously into the right flank with H1975 NSCLC cells (approximately 2 × 10^6 cells/mouse). When the tumor size reached a volume of ~200−400 mm^3, animals were randomly assigned into control and treated groups (n = 3/group). […] The sizes of tumor volume (V) were measured every two or three days by using vernier caliper, and were calculated with the formula V = (L × W^2)/2, where L and W stands for length and width, respectively.

EGFR^L858R/T790M [7] = target: T2, EGFR^L858R/T790M; parameters: method as in PMID 27396610; conditions: previously reported; cited from earlier work

| SMILES | IC50 (EGFR^WT) [nM] | IC50 (EGFR^L858R/T790M [1]) [nM] | Enzyme Selectivity WT:DM (EGFR^L858R/T790M [1]) | IC50 [2] [nM] | IC50 [3] [nM] | Cellular Selectivity A431:H1975 [3] [fold] | concentration inhibiting ERK phosphorylation [4] [nM] | concentration inhibiting phosphorylation of AKT [4] [nM] | concentration inhibiting phosphorylation of EGFR^L858R/T790M [4] [nM] | concentration at which obvious effect on EGFR activation appears [5] [µM] | tumor growth inhibition (TGI) [6] [%] | effect on body weight / tolerability ([6]; 50 mg/kg/day orally) | selectivity EGFR^L858R/T790M kinase over EGFR^WT kinase (EGFR^L858R/T790M [7]) [fold] |
| --- | --- | --- | --- | --- | --- | --- | --- | --- | --- | --- | --- | --- | --- |
| C=CC(=O)Nc1cccc(N2C(=O)OC(C)c3cnc(Nc4ccc(N5CCN(C)CC5)cc4OC)nc32)c1 (centres unmarked) [16a, N-(3-(7-((2-Methoxy-4-(4-methylpiperazin-1-yl)phenyl)amino)-4-methyl-2-oxo-2H-pyrimido[4,5-d][1,3]oxazin-1(4H)-yl)phenyl)acrylamide] | 38 | 5.4 | 4–7 fold and 7 fold | 821 ± 162 | 400 ± 257 | 2.1 | – | – | – | – | – | – | – |
| C=CC(=O)Nc1cccc(N2C(=O)OC(CC)c3cnc(Nc4ccc(N5CCN(C)CC5)cc4OC)nc32)c1 (centres unmarked) [16b, N-(3-(4-Ethyl-7-((2-methoxy-4-(4-methylpiperazin-1-yl)phenyl)amino)-2-oxo-2H-pyrimido[4,5-d][1,3]oxazin-1(4H)-yl)phenyl)acrylamide] | 23 ± 10 | 6.1 | 4–7 fold and 3.8 fold | 554 ± 285 | 200 ± 83 | 2.8 | – | – | – | – | – | – | – |
| C=CC(=O)Nc1cccc(N2C(=O)OC(CCC)c3cnc(Nc4ccc(N5CCN(C)CC5)cc4OC)nc32)c1 (centres unmarked) [16c, N-(3-(7-((2-Methoxy-4-(4-methylpiperazin-1-yl)phenyl)amino)-2-oxo-4-propyl-2H-pyrimido[4,5-d][1,3]oxazin-1(4H)-yl)phenyl)acrylamide] | 224 ± 41 | 158 ± 27 | 1.4 fold | 2110 ± 877 | 1340 ± 791 | 1.6 | – | – | – | – | – | – | – |
| C=CC(=O)Nc1cccc(N2C(=O)OC(C(C)C)c3cnc(Nc4ccc(N5CCN(C)CC5)cc4OC)nc32)c1 (centres unmarked) [16d, N-(3-(7-((2-Methoxy-4-(4-methylpiperazin-1-yl)phenyl)amino)-2-oxo-4-isopropyl-2H-pyrimido[4,5-d][1,3]oxazin-1(4H)-yl)phenyl)acrylamide] | 183 ± 47 | 217 ± 86 | 0.8 fold | 1160 ± 279 | 1110 ± 748 | 1.0 | – | – | – | – | – | – | – |
| C=CC(=O)Nc1cccc(N2C(=O)OCc3cnc(Nc4ccc(N5CCN(C)CC5)cc4OC)nc32)c1 [16e, N-(3-(7-((2-Methoxy-4-(4-methylpiperazin-1-yl)phenyl)amino)-2-oxo-2H-pyrimido[4,5-d][1,3]oxazin-1(4H)-yl)phenyl)acrylamide] | 24 | 7.3 | 3.3 fold | 1070 ± 241 | 222 ± 84 | 4.8 | – | – | – | – | – | – | – |
| C=CC(=O)Nc1cccc(N2C(=O)OC(C)(C)c3cnc(Nc4ccc(N5CCN(C)CC5)cc4OC)nc32)c1 [20a, N-(3-(7-((2-Methoxy-4-(4-methylpiperazin-1-yl)phenyl)amino)-4,4-dimethyl-2-oxo-2H-pyrimido[4,5-d][1,3]oxazin-1(4H)-yl)phenyl)acrylamide] | 156 | 4.5 | ~35 fold | 1270 | 135 | 9.4 | 100 | 10 | 10 | 1 | 71 | no obvious effect on the body weight | – |
| C=CC(=O)Nc1cccc(N2C(=O)OC(CC)(CC)c3cnc(Nc4ccc(N5CCN(C)CC5)cc4OC)nc32)c1 [20b, N-(3-(4,4-Diethyl-7-((2-methoxy-4-(4-methylpiperazin-1-yl)phenyl)amino)-2-oxo-2H-pyrimido[4,5-d][1,3]oxazin-1(4H)-yl)phenyl)acrylamide] | > 1000 | > 1000 | – | 7040 ± 455 | 3710 ± 1370 | 1.9 | – | – | – | – | – | – | – |
| C=CC(=O)Nc1cccc(N2C(=O)OC(CCC)(CCC)c3cnc(Nc4ccc(N5CCN(C)CC5)cc4OC)nc32)c1 [20c, N-(3-(7-((2-Methoxy-4-(4-methylpiperazin-1-yl)phenyl)amino)-2-oxo-4,4-dipropyl-2H-pyrimido[4,5-d][1,3]oxazin-1(4H)-yl)phenyl)acrylamide] | > 1000 | > 1000 | – | 6400 ± 349 | 9390 ± 1740 | 0.7 | – | – | – | – | – | – | – |
| C=CC(=O)Nc1cccc(Nc2nc(Nc3ccc(N4CCN(C(C)=O)CC4)cc3OC)ncc2C(F)(F)F)c1 [compound 7, CO-1686, reference compound] | – | – | – | 1120 ± 117 | 73 ± 21 | – | – | – | – | – | 72 | – | – |
| C=CC(=O)Nc1cccc(-n2c(=O)c(=O)n(C)c3cnc(Nc4ccc(N5CCN(C)CC5)cc4OC)nc32)c1 [compound 9] | – | – | – | – | – | – | – | – | – | – | – | – | 101 |
